Results: patent US10111896B2, “Composition comprising a combination of DNA methylation inhibitor and a vitamin D receptor agonist for the treatment of drug resistant cancer or for the prevention of tumor relapse” (INSERM (Institut National de la Sante et de la Recherche …, priority 2014, dated 2018)

Experiments:
[1] = tested on: VDR promoter; assay: VDR promoter methylation analysis (methylation specific PCR) in primary AML samples; assay type: cell-based, human; conditions: 5-AZA 1 μM, 96 hours, vs not treated
Protocol: (§1) (A) Schematic representation of the VDR promoter. 5′-CpG-3′ islands present in VDR promoter (region ranging from −1035 to −75+ bp relative to the exon 1a transcriptional start codon) represented by dashes. […] Cell viability was evaluated by ATP assay. Results are presented as mean±SEM (ns not significant, *p<0.05, **p<0.01, ***p<0.001). […] HL60 were mock-treated or treated with 5-AZA (5 μM) or Vitamin D ([…]; as positive control) for 6 hours. (E) VDR or VDR-target genes (CAMP and CYP24A1) expression was evaluated by qPCR. Results are presented as mean±SEM. […] Primary cells (n=3 patients) were mock-treated or treated with 5-AZA (5 μM) or inecalcitol (INEC; […]) or both for 6 hours. VDR or VDR-target genes (CAMP and CYP24A1) expression was evaluated by qPCR. Results are presented as mean±SEM.

[2] = tested on: VDR promoter; assay: Methylation-sensitive high resolution melting (MS-HRM) analysis on THP-1 cells; assay type: cell-based, human; conditions: 5-AZA 1 μM, 96 hours
Protocol: as §1

[3] = tested on: wild-type MLL-ENL transformed cells; assay: Cell viability by ATP assay, wild-type MLL-ENL transformed cells; assay type: cell-based, mouse; conditions: growing concentrations, 72 h
Protocol: as §1
(§2) Cells were seeded into 96-well plates, and then returned to the 37° C. incubator after the addition of different reactives or vehicle controls DMSO and ethanol if not otherwise stated. Celltiter Glo reagents (Promega) were added after 48 to 96 hours to determine cell viability by measuring ATP levels.

[4] = tested on: VDR-/- MLL-ENL transformed cells; assay: Cell viability by ATP assay, VDR-/- MLL-ENL transformed cells; assay type: cell-based, mouse; conditions: growing concentrations, 72 h
Protocol: as §1, §2

[5] = tested on: VDR and VDR targeted genes (CAMP and CYP24A1) in HL60 cells; conditions: 6 hours
Protocol: as §1

[6] = tested on: VDR-target genes (CAMP and CYP24A1) in primary cells from AML patients; assay: qPCR of VDR-target genes in leukemic cells from AML patients; assay type: cell-based, human; conditions: primary cells from AML patients (n=3); 5-AZA 5 μM, 6 hours
Protocol: as §1

[7] = tested on: U937 cells; assay: Myeloid differentiation, CD11b and CD14 expression by flow cytometry in AML cell lines; assay type: cell-based, human; conditions: 5-AZA 5 μM, INEC 10 nM or both, 72 hours
Protocol: (A) Structural formulas of 1-25 dihydroxyvitamin D3 (VD) and VDR agonist Inecalcitol. http://www.chemblink.com/products/163217-09-2.htm. (B-D) Hypomethylating agents synergize with VDR agonists to promote myeloid differentiation and VDR activity. (B) U937 cells were mock-treated or treated with 5-AZA (5 μM), INEC (10 nM) or both for 72 hours. CD11b and CD14 expression was evaluated by flow cytometry. Results are presented in fold increase compared to vehicle Histograms are mean±SEM (n≥10; *p<0.05, **p<0.01, ***p<0.001). (C) HL60 cells were mock-treated or treated with 5-AZA (5 μM), with Vitamin D (300 nM) or INEC (10 nM) for 16 hours. Granocyte differentiation genes (PRTN3 and NE) and monocyte differentiation genes (TREML2 and SERPINB8) were accessed by qPCR. Results are presented as mean±SEM. (D) U937 cells were mock-treated or treated with 5-AZA (5 μM), INEC (10 nM) or both for 16 hours. VDR activation was evaluated by immunoblot using anti-phospho-VDR specific antibodies. VDR antibodies were used to control protein loading. (E-G) Combined Hypomethylating agents/VDR agonists therapy impairs tumor growth. (E) HL60 cells were mock-treated or treated with 5-AZA (5 μM), with INEC (10 nM) or both for 16 hours. […] (F) Expression of cell cycle regulator genes p15, p21 and p27 was evaluated by qPCR. […] The p-value was determined using the log-rank test. […]

[8] = tested on: U937 cells xenograft; assay: Subcutaneous U937 tumor xenograft in athymic Nude mice; assay type: in vivo, mouse; conditions: 5-AZA 5 mg/kg i.p. five injections, INEC 20 μg per mice i.p. three times a week, vs control mice
Protocol: (B) U937 cells were mock-treated or treated with 5-AZA (5 μM), INEC (10 nM) or both for 72 hours. CD11b and CD14 expression was evaluated by flow cytometry. […] (C) HL60 cells were mock-treated or treated with 5-AZA (5 μM), with Vitamin D (300 nM) or INEC (10 nM) for 16 hours. Granocyte differentiation genes (PRTN3 and NE) and monocyte differentiation genes (TREML2 and SERPINB8) were accessed by qPCR. Results are presented as mean±SEM. (D) U937 cells were mock-treated or treated with 5-AZA (5 μM), INEC (10 nM) or both for 16 hours. VDR activation was evaluated by immunoblot using anti-phospho-VDR specific antibodies. VDR antibodies were used to control protein loading. […] (E) HL60 cells were mock-treated or treated with 5-AZA (5 μM), with INEC (10 nM) or both for 16 hours. Cell cycle analyses were performed by topro-3 labeling. Results are presented as mean±SEM. […] (F) Expression of cell cycle regulator genes p15, p21 and p27 was evaluated by qPCR. Results are presented as mean±SEM. (G) Kaplan-Meier plot of survival of mice treated with vehicle (PBS), 5-Acytidine (5 mg/kg intraperitoneally three times a week for five injections) and or INEC (20 μg per mice intraperitoneally, three time a week) after subcutaneous xenograft with U937 cells (n=8 tumors in each group). The p-value was determined using the log-rank test.
For tumor establishment, U937 or OCI-AML3 cells as indicated were mixed with Matrigel (BD Biosciences) (1:1, vol/vol) and injected subcutaneously (5×106/flank) into 10-week old female athymic Nude mice (Janvier laboratories, France). The mice were then injected i.p. with 5-Azacytidine (Celgene) (5 mg/kg on day 5, 7, 9, 11 and 13), Inecalcitol (Hybrigenics) (20 μg/day 3 times a week), and the combination of 5-Azacytidine and Inecalcitol or PBS as a vehicle control. The tumor growth was measured as previously described (Lepelletier 2007).

[9] = tested on: AML cells; assay: Dose-response studies of AML cells differentiation; assay type: cell-based; conditions: compared with VD
[10] = tested on: FLT3-ITD-transformed bone marrow hematopoietic progenitors; assay: Methylcellulose colony-forming and replating assay of FLT3-ITD transformed cells; assay type: cell-based, mouse
Protocol: (A) Inecalcitol decreases clonogenicity of FLT3-ITD of transformed cells. FLT3-ITD-transformed bone marrow hematopoietic progenitors were plated (30.000 cells/condition) in semisolid methylcellulose media containing cytokines (M-3434) containing or not INEC (10 nM) and scored following 7 to 10 days of culture. For re-plating assays 10-30.000 cells were plated (as indicated) in the presence or in the absence of INEC (10 nM) for each condition. Histograms represents numbers of colonies (mean±SEM of three independent experiments). Results are presented as mean±SEM of 4 independent experiments.
Colony formation by transformed or not mouse cells was examined with the use of Methocult medium (MethoCult GF M3434, StemCell Technologies). WT and VDR−/− cells infected were collected from BMT with oncogene or not and transferred to Methocult medium. Colonies were scored one week after plating for determination of the number of colonies. For serial plating cells were collected from methylcellulose, washed once in PBS, counted and replated in Methocult. For some experiments, 10 nM Inecalcitol (hybrigenics) was added to the culture medium.
LIC are a subset of leukemic cells in the bulk leukemia population bearing resistance to chemotherapy and therefore at the origin of relapses. Next we explored the efficacy of VDR agonist therapy in targeting LIC cells. To test this hypothesis we transduced bone marrow precursors from wild-type and VDR−/− mice with the FLT3-ITD construct. Cells were plated in semi-solid cultures containing INEC or vehicle as a control (FIG. 6A). […] To further examine is the INEC effect was reversible we divided 2nd replating INEC-treated cultures in two groups containing INEC or a vehicle.

[11] = tested on: FLT3-ITD/NPM1 AML blasts; assay: In vitro treatment of FLT3-ITD/NPM1 AML blasts, myeloid differentiation markers; assay type: cell-based
[12] = tested on: FLT3-ITD/NPM1 AML blasts; assay: Adoptive transfer of FLT3-ITD/NPM1 AML blasts and bone marrow cells in mice; assay type: in vivo, mouse
Source text: In agreement, biological as well as immunophenotypic markers of leukemia cells were normalized in INEC-treated animals (FIG. 6C).

[13] = tested on: β-catenin in OCI-AML3 cells; assay: β-catenin expression by flow cytometry in OCI-AML3 cells; assay type: cell-based, human; conditions: INEC 10, 100 or 1000 nM, 48 hours

Compound | VDR promoter methylation [1] | VDR promoter methylation (MS-HRM) [2] | cell sensitivity (viability) [3] | cell survival [4] | expression of VDR targeted genes (CAMP and CYP24A1) ([5]; 5-AZA 5 μM or Vitamin D 1000 μM) | VDR expression, fold increase ([5]; 5-AZA 5 μM) | VDR-target genes expression [6] | increase in myeloid differentiation (CD11b and CD14 expression), fold increase compared to vehicle [7] | survival of xenografted mice [8] | tumor size / tumor growth [8] | effectiveness to promote AML cells differentiation relative to VD [9] | CFC after INEC wash-out ([10]; 2nd replating INEC-treated cultures switched to vehicle) | decrease in clonogenic potential compared to vehicle-treated cells ([10]; INEC 10 nM in methylcellulose, first plating) | colonies at the 4th round of plating ([10]; INEC 10 nM, serial replating) | expression of myeloid differentiation markers [11] | leukemia development after passive transfer of BM cells from treated animals ([12]; in comparison to mock-treated animals) | biological and immunophenotypic markers of leukemia cells in treated animals ([12]; mouse, in vivo) | leukemia development in mice adoptively transferred with treated cells ([12]; mouse, in vivo) | β-catenin pathway / expression [13]
Nc1ncn([C@@H]2O[C@H](CO)[C@@H](O)[C@H]2O)c(=O)n1 [5-AZA, 5-azacytidine] | decrease in methylation | revert VDR promoter methylation | sensitive | not altered | induced the expression | 2 fold | induces VDR-target genes expression | 1.3 fold | did not observe a significant effect | did not observe a significant effect |  |  |  |  |  |  |  |  | 
C[C@H](CC#CC(C)(C)O)[C@H]1CC[C@@H]2/C(=C/C=C3C[C@@H](O)C[C@H](O)C3)CCC[C@@]21C [INEC, 19-nor-14-epi-23-yne-1,25-(OH)2D3] |  |  |  |  |  |  |  | 4.5 fold | did not observe a significant effect | did not observe a significant effect | 1000 fold | reestablished CFC | 5 fold | virtually no colonies | increased expression | strongly delayed leukemia development | normalized | not able to develop leukemia | inhibits β-cathenin pathway
